One test concerns the target T1, CSNK1G3 (Homo sapiens, UniProt Q9Y6M4).
T1 construct: purchased Eurofins DiscoverX KINOMEscan
The experiment in a line: KINOMEscan 1 μM, CSNK1G3. Type of test: binding. The following applies: 1000 nM; Entrez CSNK1G3; read-out: Percent Control. The text has this:
(§1) Supplement cells-12-00287-s001.zip/File S2. KinomeScan data for the CAMKK2 probe and negative control.xlsx, sheet "SGC-CAMKK2-1" | column: Percent Control

The target in another test is T2, CAMK2D (Homo sapiens, UniProt Q13557).
T2 construct: purchased Eurofins DiscoverX KINOMEscan
The experiment in a line: KINOMEscan 1 μM, CAMK2D. The following applies: 1000 nM; Entrez CAMK2D; read-out: Percent Control. Type of test: binding.
Description: as §1

Another test deals with T3, WNK4 (Homo sapiens, UniProt Q96J92).
T3 construct: purchased Eurofins DiscoverX KINOMEscan
The experiment in a line: DiscoverX KINOMEscan binding assay at 1 μM, WNK4. The following applies: Compound Concentration 1000 nM, read-out: Percent Control.
Description: as §1

In the next test the target is T4, SgK110 (Homo sapiens, UniProt P0C264).
T4 construct: purchased Eurofins DiscoverX KINOMEscan
Description: KINOMEscan 1 μM, SgK110. It is filed as binding. The following applies: 1000 nM; Entrez SgK110; read-out: Percent Control.
Description: as §1

In another test the target is T5, TTK (Homo sapiens, UniProt P33981).
T5 construct: purchased Eurofins DiscoverX KINOMEscan
Description: DiscoverX KINOMEscan binding assay at 1 μM, TTK. The following applies: Compound Concentration 1000 nM, read-out: Percent Control.
Description: as §1

Another test concerns the target T6, SRC (Homo sapiens, UniProt P12931).
T6 construct: purchased Eurofins DiscoverX KINOMEscan
The experiment in a line: KINOMEscan 1 μM, SRC. It is filed as binding. The following applies: 1000 nM; Entrez SRC; read-out: Percent Control.
Description: as §1

The next test concerns the target T7, EGFR(L858R,T790M) (Homo sapiens, UniProt P00533, L858R/T790M).
T7 construct: purchased Eurofins DiscoverX KINOMEscan
Description: KINOMEscan 1 μM, EGFR(L858R,T790M). Type of test: binding. The following applies: 1000 nM; Entrez EGFR; read-out: Percent Control.
Description: as §1

For a further test, the target named is T8, PIK3CA(E545K) (Homo sapiens, UniProt P42336, E545K).
T8 construct: purchased Eurofins DiscoverX KINOMEscan
Description: KINOMEscan 1 μM, PIK3CA(E545K). Type of test: binding. The following applies: 1000 nM; Entrez PIK3CA; read-out: Percent Control.
Description: as §1

In another test the target is T9, MAPKAPK2 (Homo sapiens, UniProt P49137).
T9 construct: purchased Eurofins DiscoverX KINOMEscan
The experiment in a line: KINOMEscan 1 μM, MAPKAPK2. It is filed as binding. The following applies: 1000 nM; Entrez MAPKAPK2; read-out: Percent Control.
Description: as §1

A further test concerns the target T10, RET (Homo sapiens, UniProt P07949).
T10 construct: purchased Eurofins DiscoverX KINOMEscan
The experiment in a line: KINOMEscan 1 μM, RET. Type of test: binding. The following applies: 1000 nM; Entrez RET; read-out: Percent Control.
Description: as §1

For another test, the target named is T11, ABL1-nonphosphorylated (Homo sapiens, UniProt P00519).
T11 construct: purchased Eurofins DiscoverX KINOMEscan
Description: KINOMEscan 1 μM, ABL1-nonphosphorylated. The following applies: 1000 nM; Entrez ABL1; read-out: Percent Control. Type of test: binding.
Description: as §1

In the next test the target is T12, MEK6 (Homo sapiens, UniProt P52564).
T12 construct: purchased Eurofins DiscoverX KINOMEscan
Description: KINOMEscan 1 μM, MEK6. The following applies: 1000 nM; Entrez MAP2K6; read-out: Percent Control. It is filed as binding.
Description: as §1

A further test addresses T13, HPK1 (Homo sapiens, UniProt Q92918).
T13 construct: purchased Eurofins DiscoverX KINOMEscan
The experiment in a line: KINOMEscan 1 μM, HPK1. Type of test: binding. The following applies: 1000 nM; Entrez MAP4K1; read-out: Percent Control.
Description: as §1

For the next test, the target named is T14, OSR1 (Homo sapiens, UniProt O95747).
T14 construct: purchased Eurofins DiscoverX KINOMEscan
Description: KINOMEscan 1 μM, OSR1. It is filed as binding. The following applies: 1000 nM; Entrez OXSR1; read-out: Percent Control.
Description: as §1

In another test the target is T15, TNIK (Homo sapiens, UniProt Q9UKE5).
T15 construct: purchased Eurofins DiscoverX KINOMEscan
The experiment in a line: KINOMEscan 1 μM, TNIK. Type of test: binding. The following applies: 1000 nM; Entrez TNIK; read-out: Percent Control.
Description: as §1

Another test has as its target T16, FLT3(K663Q) (Homo sapiens, UniProt P36888, K663Q).
T16 construct: purchased Eurofins DiscoverX KINOMEscan
Description: KINOMEscan 1 μM, FLT3(K663Q). It is filed as binding. The following applies: 1000 nM; Entrez FLT3; read-out: Percent Control.
Description: as §1

The target of the next test is T17, MYLK2 (Homo sapiens, UniProt Q9H1R3).
T17 construct: purchased Eurofins DiscoverX KINOMEscan
The experiment in a line: KINOMEscan 1 μM, MYLK2. It is filed as binding. The following applies: 1000 nM; Entrez MYLK2; read-out: Percent Control.
Description: as §1

A further test has as its target T18, NEK10 (Homo sapiens, UniProt Q6ZWH5).
T18 construct: purchased Eurofins DiscoverX KINOMEscan
Description: KINOMEscan 1 μM, NEK10. Type of test: binding. The following applies: 1000 nM; Entrez NEK10; read-out: Percent Control.
Description: as §1

The target in the next test is T19, RIPK2 (Homo sapiens, UniProt O43353).
T19 construct: purchased Eurofins DiscoverX KINOMEscan
The experiment in a line: KINOMEscan 1 μM, RIPK2. Type of test: binding. The following applies: 1000 nM; Entrez RIPK2; read-out: Percent Control.
Description: as §1

A further test has as its target T20, EPHA8 (Homo sapiens, UniProt P29322).
T20 construct: purchased Eurofins DiscoverX KINOMEscan
The experiment in a line: KINOMEscan 1 μM, EPHA8. It is filed as binding. The following applies: 1000 nM; Entrez EPHA8; read-out: Percent Control.
Description: as §1

Test [1] deals with T21, RPS6KA4(Kin.Dom.2-C-terminal) (Homo sapiens, UniProt O75676).
T21 construct: RPS6KA4(Kin.Dom.2-C-terminal); purchased Eurofins DiscoverX KINOMEscan
The experiment in a line: KINOMEscan at 1 μM, RPS6KA4(Kin.Dom.2-C-terminal). It is filed as binding. The following applies: 1000 nM, read-out: Percent Control. The text has this:
(§2) Supplement cells-12-00287-s001.zip/File S2. KinomeScan data for the CAMKK2 probe and negative control.xlsx, sheet "SGC-CAMKK2-1N" | column: Percent Control

The next test addresses T22, CDC2L1 (Homo sapiens, UniProt P21127).
T22 construct: purchased Eurofins DiscoverX KINOMEscan
Description: KINOMEscan at 1 μM, CDC2L1. It is filed as binding. The following applies: 1000 nM, read-out: Percent Control.
Description: as §2

The target in the next test is T23, MAK (Homo sapiens, UniProt P20794).
T23 construct: purchased Eurofins DiscoverX KINOMEscan
Description: KINOMEscan at 1 μM, MAK. It is filed as binding. The following applies: 1000 nM, read-out: Percent Control.
Description: as §2

The next test has as its target T24, MARK1 (Homo sapiens, UniProt Q9P0L2).
T24 construct: purchased Eurofins DiscoverX KINOMEscan
Description: KINOMEscan at 1 μM, MARK1. It is filed as binding. The following applies: 1000 nM, read-out: Percent Control.
Description: as §2

Another test deals with T25, YES (Homo sapiens, UniProt P07947).
T25 construct: purchased Eurofins DiscoverX KINOMEscan
Description: KINOMEscan at 1 μM, YES. Type of test: binding. The following applies: 1000 nM, read-out: Percent Control.
Description: as §2

The next test has as its target T26, FYN (Homo sapiens, UniProt P06241).
T26 construct: purchased Eurofins DiscoverX KINOMEscan
Description: KINOMEscan at 1 μM, FYN. It is filed as binding. The following applies: 1000 nM, read-out: Percent Control.
Description: as §2

A further test addresses T27, SLK (Homo sapiens, UniProt Q9H2G2).
T27 construct: purchased Eurofins DiscoverX KINOMEscan
The experiment in a line: KINOMEscan binding assay at 1 μM, SLK. The following applies: Compound Concentration 1000 nM; read-out: Percent Control.
Description: as §2

The next test addresses T28, RIOK3 (Homo sapiens, UniProt O14730).
T28 construct: purchased Eurofins DiscoverX KINOMEscan
The experiment in a line: KINOMEscan at 1 μM, RIOK3. Type of test: binding. The following applies: 1000 nM, read-out: Percent Control.
Description: as §2

The next test addresses T29, MAP3K2 (Homo sapiens, UniProt Q9Y2U5).
T29 construct: purchased Eurofins DiscoverX KINOMEscan
Description: KINOMEscan at 1 μM, MAP3K2. It is filed as binding. The following applies: 1000 nM, read-out: Percent Control.
Description: as §2

Test [2] addresses T30, ABL1(F317I)-nonphosphorylated (Homo sapiens, UniProt P00519, F317I).
T30 construct: purchased Eurofins DiscoverX KINOMEscan
The experiment in a line: KINOMEscan at 1 μM, ABL1(F317I)-nonphosphorylated. It is filed as binding. The following applies: 1000 nM, read-out: Percent Control.
Description: as §2

The next test concerns the target T31, RET(M918T) (Homo sapiens, UniProt P07949, M918T).
T31 construct: purchased Eurofins DiscoverX KINOMEscan
Description: KINOMEscan at 1 μM, RET(M918T). Type of test: binding. The following applies: 1000 nM, read-out: Percent Control.
Description: as §2

In the next test the target is T32, MUSK (Homo sapiens, UniProt O15146).
T32 construct: purchased Eurofins DiscoverX KINOMEscan
The experiment in a line: KINOMEscan binding assay at 1 μM, MUSK. The following applies: Compound Concentration 1000 nM; read-out: Percent Control.
Description: as §2

Each structure is given as a SMILES string.

T26 sequence (P06241 whole entry): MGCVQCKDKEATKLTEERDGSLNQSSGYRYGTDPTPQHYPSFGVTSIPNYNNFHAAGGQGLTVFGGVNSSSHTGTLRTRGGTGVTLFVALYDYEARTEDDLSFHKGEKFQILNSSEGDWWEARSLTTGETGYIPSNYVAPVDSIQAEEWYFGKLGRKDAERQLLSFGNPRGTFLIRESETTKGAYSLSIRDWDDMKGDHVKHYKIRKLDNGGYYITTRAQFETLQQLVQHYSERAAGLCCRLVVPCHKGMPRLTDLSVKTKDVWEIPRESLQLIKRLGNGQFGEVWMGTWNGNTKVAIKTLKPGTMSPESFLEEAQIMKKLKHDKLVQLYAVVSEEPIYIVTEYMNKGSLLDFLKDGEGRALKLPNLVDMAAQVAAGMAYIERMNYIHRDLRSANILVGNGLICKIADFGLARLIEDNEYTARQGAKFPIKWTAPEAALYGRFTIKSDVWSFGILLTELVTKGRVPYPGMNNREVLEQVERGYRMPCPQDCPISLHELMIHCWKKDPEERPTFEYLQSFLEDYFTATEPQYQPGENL
T17 sequence (Q9H1R3 whole entry): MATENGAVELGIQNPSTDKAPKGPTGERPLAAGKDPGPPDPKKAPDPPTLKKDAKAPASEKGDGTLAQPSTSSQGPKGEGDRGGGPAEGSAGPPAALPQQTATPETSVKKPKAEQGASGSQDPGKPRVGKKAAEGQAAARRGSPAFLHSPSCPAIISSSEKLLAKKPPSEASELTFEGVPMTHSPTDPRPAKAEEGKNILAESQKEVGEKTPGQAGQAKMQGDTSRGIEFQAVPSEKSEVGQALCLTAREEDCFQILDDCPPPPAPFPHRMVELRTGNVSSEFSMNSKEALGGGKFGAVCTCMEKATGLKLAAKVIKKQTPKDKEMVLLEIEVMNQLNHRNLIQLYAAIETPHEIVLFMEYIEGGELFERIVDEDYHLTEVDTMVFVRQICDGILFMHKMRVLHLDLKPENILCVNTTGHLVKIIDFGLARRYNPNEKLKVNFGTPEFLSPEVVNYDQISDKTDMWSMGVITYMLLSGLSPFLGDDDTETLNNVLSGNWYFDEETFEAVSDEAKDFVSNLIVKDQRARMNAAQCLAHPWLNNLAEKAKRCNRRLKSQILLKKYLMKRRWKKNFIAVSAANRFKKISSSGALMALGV
T19 sequence (O43353 whole entry): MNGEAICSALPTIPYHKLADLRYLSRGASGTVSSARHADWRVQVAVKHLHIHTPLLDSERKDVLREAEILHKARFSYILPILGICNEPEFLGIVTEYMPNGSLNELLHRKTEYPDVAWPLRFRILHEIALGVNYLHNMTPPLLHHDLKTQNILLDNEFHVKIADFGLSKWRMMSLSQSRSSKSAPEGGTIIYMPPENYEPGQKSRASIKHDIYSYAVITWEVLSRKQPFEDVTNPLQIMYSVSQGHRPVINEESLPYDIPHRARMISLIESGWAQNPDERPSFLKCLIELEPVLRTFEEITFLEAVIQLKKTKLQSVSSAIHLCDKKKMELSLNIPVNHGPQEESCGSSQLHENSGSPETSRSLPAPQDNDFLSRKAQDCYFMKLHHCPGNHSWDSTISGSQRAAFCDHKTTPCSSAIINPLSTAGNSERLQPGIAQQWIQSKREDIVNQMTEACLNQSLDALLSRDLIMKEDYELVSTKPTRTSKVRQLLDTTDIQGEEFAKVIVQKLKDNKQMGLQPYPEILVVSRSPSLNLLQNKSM
T9 sequence (P49137 whole entry): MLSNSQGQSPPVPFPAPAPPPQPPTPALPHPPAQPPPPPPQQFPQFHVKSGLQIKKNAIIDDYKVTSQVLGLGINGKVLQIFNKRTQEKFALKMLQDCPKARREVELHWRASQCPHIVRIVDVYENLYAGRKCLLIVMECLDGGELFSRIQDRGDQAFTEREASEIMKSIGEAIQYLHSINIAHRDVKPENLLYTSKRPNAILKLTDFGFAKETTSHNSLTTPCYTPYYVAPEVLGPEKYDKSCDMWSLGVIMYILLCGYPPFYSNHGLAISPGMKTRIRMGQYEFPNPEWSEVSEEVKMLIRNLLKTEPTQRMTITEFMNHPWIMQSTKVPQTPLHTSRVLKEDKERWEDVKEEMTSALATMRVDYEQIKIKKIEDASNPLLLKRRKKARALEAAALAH
T25 sequence (P07947 whole entry): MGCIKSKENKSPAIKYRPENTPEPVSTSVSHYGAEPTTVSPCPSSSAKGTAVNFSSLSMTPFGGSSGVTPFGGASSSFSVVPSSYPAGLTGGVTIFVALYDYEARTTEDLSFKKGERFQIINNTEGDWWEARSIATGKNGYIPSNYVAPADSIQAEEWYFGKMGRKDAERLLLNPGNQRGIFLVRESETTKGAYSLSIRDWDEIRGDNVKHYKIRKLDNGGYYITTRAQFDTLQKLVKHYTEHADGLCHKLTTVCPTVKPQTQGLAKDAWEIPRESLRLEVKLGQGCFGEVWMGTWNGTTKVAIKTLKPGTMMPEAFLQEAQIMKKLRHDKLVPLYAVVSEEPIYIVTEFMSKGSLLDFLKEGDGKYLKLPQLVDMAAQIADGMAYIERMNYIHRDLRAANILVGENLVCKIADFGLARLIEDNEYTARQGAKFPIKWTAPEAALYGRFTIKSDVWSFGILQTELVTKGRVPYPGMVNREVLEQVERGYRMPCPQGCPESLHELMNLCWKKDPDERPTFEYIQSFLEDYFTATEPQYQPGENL
T18 sequence (Q6ZWH5 whole entry): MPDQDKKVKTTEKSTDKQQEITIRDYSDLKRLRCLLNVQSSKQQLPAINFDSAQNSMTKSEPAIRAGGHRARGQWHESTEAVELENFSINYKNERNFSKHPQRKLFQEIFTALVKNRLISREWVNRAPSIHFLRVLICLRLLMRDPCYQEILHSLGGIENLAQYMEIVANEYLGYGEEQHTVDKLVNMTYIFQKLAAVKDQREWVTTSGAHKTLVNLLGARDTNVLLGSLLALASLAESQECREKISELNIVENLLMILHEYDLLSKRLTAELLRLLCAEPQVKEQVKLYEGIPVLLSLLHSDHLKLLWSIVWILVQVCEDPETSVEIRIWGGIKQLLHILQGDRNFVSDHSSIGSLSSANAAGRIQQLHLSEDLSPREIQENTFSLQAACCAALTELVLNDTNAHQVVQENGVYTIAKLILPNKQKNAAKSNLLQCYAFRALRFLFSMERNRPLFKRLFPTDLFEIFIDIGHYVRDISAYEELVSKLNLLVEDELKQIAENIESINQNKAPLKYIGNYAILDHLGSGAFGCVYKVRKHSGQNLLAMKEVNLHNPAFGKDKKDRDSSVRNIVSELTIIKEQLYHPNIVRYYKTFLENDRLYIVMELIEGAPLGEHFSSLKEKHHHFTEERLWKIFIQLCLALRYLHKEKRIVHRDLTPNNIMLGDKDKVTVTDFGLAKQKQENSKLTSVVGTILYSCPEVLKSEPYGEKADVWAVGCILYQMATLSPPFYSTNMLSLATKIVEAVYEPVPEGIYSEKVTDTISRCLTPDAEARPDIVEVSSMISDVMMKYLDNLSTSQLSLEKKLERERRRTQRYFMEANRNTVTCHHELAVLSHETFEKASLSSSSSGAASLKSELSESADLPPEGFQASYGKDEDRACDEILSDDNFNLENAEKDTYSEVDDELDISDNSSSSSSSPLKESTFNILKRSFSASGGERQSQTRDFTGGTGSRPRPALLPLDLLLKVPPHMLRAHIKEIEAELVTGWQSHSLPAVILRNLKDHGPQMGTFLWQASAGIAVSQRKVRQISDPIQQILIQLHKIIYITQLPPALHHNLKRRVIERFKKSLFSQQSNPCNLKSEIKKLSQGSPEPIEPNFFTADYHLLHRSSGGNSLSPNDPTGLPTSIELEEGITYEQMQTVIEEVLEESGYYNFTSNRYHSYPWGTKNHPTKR
T21 sequence (O75676 372-772 limits assumed): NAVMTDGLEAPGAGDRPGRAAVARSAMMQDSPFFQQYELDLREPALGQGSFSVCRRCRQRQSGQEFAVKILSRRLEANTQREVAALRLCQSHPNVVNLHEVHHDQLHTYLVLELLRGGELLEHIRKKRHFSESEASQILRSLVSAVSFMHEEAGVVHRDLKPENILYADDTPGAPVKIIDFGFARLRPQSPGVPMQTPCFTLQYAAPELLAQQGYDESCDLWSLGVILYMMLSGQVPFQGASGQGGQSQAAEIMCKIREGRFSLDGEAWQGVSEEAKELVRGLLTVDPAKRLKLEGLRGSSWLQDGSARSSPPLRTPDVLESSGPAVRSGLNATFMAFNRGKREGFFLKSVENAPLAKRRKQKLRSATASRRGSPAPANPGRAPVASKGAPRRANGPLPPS
T28 sequence (O14730 whole entry): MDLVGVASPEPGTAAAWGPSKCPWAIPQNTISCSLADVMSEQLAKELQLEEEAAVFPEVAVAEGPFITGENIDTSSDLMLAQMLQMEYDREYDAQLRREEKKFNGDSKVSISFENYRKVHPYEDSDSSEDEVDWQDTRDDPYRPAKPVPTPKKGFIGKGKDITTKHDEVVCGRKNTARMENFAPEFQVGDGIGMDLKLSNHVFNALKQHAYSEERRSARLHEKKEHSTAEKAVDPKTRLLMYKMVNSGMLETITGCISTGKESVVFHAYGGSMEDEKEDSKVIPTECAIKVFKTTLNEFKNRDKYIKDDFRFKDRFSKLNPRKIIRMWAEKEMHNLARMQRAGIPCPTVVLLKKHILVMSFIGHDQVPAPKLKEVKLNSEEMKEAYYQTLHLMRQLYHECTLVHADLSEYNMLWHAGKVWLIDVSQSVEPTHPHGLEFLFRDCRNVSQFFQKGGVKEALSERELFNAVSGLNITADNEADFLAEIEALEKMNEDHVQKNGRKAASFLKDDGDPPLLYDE

For the molecule `Cc1cccc(-c2cnc3occ(-c4ccc(C(=O)O)c(C5CCCC5)c4)c3c2)c1` [SGC-CAMKK2-1 (YL-36)], the remaining binding at 1 µM on CSNK1G3 was 99%; on CAMK2D, 98%; on WNK4, 100%; at SgK110 it was 57%; at TTK, 100%; on SRC it was 96%. For the same molecule, the remaining binding at 1 µM on EGFR(L858R,T790M) came out at 100%; on PIK3CA(E545K), 94%; on MAPKAPK2, 100%; on RET, 98%; on ABL1-nonphosphorylated, 95%; on MEK6 it was 100%. For the same molecule, the remaining binding at 1 µM came out at 100% on HPK1; 84% at OSR1; 92% at TNIK; 100% at FLT3(K663Q); 100% at MYLK2; 88% on NEK10. Moreover, the remaining binding at 1 µM at RIPK2 turned out to be 55%; at EPHA8, 95%.

Turning to `O=C(O)c1ccc(-c2coc3ncc(-c4ccccc4)cc23)cc1Cl` [SGC-CAMKK2-1N (UNC-YL-83)], the remaining binding at 1 µM came to 82% in test [1]; 72% at CDC2L1; 83% at MAK; 97% at MARK1; 87% at YES; 80% on FYN. Besides, the remaining binding at 1 µM was 100% on SLK; 76% on RIOK3; 83% on MAP3K2; 37% in [2]; 99% at RET(M918T); 100% on MUSK.
